Consider eleven molecules from BindingDB's records for doi:10.1021/jm00055a007 (Abbott Laboratories, 1993).

The assay concerns the target Gonadotropin-releasing hormone receptor (Rattus norvegicus) (UniProt P30969).

Each structure is given as a SMILES string. pKi: −log10 of the molar value.

Gonadotropin-releasing hormone receptor (Rattus norvegicus), sequence (P30969 whole entry, looked up): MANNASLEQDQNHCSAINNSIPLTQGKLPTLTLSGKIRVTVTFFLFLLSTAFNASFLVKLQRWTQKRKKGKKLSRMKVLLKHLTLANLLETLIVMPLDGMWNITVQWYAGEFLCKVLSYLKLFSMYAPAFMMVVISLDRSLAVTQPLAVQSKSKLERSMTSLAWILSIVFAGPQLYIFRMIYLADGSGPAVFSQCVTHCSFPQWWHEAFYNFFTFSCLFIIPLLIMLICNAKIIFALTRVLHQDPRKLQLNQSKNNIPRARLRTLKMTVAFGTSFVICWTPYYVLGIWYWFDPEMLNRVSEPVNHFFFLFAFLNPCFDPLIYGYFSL

`CC(C)C[C@H](NC(=O)[C@@H](Cc1ccc2ccccc2c1)NC(=O)[C@H](Cc1ccc(O)cc1)NC(=O)[C@H](CO)NC(=O)[C@H](Cc1c[nH]c2ccccc12)NC(=O)[C@H](Cc1ccccc1)N(C)C(=O)[C@@H]1CCC(=O)N1)C(=O)N[C@@H](CCCN=C(N)N)C(=O)N1CCC[C@H]1C(=O)NCC(N)=O` [nafarelin 2NMePhe] showed a pKi of 9.52.
Regarding `CC(C)C[C@H](NC(=O)[C@@H](Cc1ccc2ccccc2c1)NC(=O)[C@H](Cc1ccc(O)cc1)NC(=O)[C@H](CO)NC(=O)[C@H](Cc1c[nH]c2ccccc12)NC(=O)[C@H](Cc1ccccc1)NC(=O)[C@@H]1CCC(=O)N1)C(=O)N[C@@H](CCCN=C(N)N)C(=O)N1CCC[C@H]1C(=O)NCC(N)=O` [nafarelin 2Phe], the pKi was 10.15.
As to `CC(C)C[C@H](NC(=O)[C@@H](Cc1ccc2ccccc2c1)NC(=O)[C@H](Cc1ccc(O)cc1)NC(=O)[C@H](CO)NC(=O)[C@H](Cc1cccc2ccccc12)N(C)C(=O)[C@H](Cc1cnc[nH]1)NC(=O)[C@@H]1CCC(=O)N1)C(=O)N[C@@H](CCCN=C(N)N)C(=O)N1CCC[C@H]1C(=O)NCC(N)=O` [nafarelin 3NMe1Nal], the negative-log Ki (pKi) is 9.13.
`CC(C)C[C@H](NC(=O)[C@@H](Cc1ccc2ccccc2c1)NC(=O)[C@H](Cc1ccc(O)cc1)NC(=O)[C@H](CO)N(C)C(=O)[C@H](Cc1c[nH]c2ccccc12)NC(=O)[C@H](Cc1c[nH]cn1)NC(=O)[C@@H]1CCC(=O)N1)C(=O)N[C@@H](CCCN=C(N)N)C(=O)N1CCC[C@H]1C(=O)NCC(N)=O` [nafarelin 4NMeSer] showed a pKi of 10.40.
The molecule `CC(C)C[C@H](NC(=O)[C@@H](Cc1ccc2ccccc2c1)NC(=O)[C@H](Cc1ccc(O)cc1)N(C)C(=O)[C@H](CO)NC(=O)[C@H](Cc1c[nH]c2ccccc12)NC(=O)[C@H](Cc1c[nH]cn1)NC(=O)[C@@H]1CCC(=O)N1)C(=O)N[C@@H](CCCN=C(N)N)C(=O)N1CCC[C@H]1C(=O)NCC(N)=O` [nafarelin 5NMeTyr] showed a pKi of 10.52.
With `CC(C)C[C@H](NC(=O)[C@@H](Cc1ccc2ccccc2c1)N(C)C(=O)[C@H](Cc1ccc(O)cc1)NC(=O)[C@H](CO)NC(=O)[C@H](Cc1c[nH]c2ccccc12)NC(=O)[C@H](Cc1c[nH]cn1)NC(=O)[C@@H]1CCC(=O)N1)C(=O)N[C@@H](CCCN=C(N)N)C(=O)N1CCC[C@H]1C(=O)NCC(N)=O` [nafarelin 6NMe2Nal], the pKi is 8.57.
The molecule `CC(C)C[C@@H](C(=O)N[C@@H](CCCN=C(N)N)C(=O)N1CCC[C@H]1C(=O)NCC(N)=O)N(C)C(=O)[C@@H](Cc1ccc2ccccc2c1)NC(=O)[C@H](Cc1ccc(O)cc1)NC(=O)[C@H](CO)NC(=O)[C@H](Cc1c[nH]c2ccccc12)NC(=O)[C@H](Cc1c[nH]cn1)NC(=O)[C@@H]1CCC(=O)N1` [nafarelin 7NMeLeu] showed a pKi of 10.52.
Turning to `CC(C)C[C@H](NC(=O)[C@@H](Cc1ccc2ccccc2c1)NC(=O)[C@H](Cc1ccc(O)cc1)NC(=O)[C@H](CO)NC(=O)[C@H](Cc1c[nH]c2ccccc12)NC(=O)[C@H](Cc1c[nH]cn1)NC(=O)[C@@H]1CCC(=O)N1)C(=O)N(C)[C@@H](CCCN=C(N)N)C(=O)N1CCC[C@H]1C(=O)NCC(N)=O` [nafarelin 8NMeArg], the pKi was 7.55.
Molecule `CC(C)C[C@H](NC(=O)[C@@H](Cc1ccc2ccccc2c1)NC(=O)[C@H](Cc1ccc(O)cc1)NC(=O)[C@H](CO)NC(=O)[C@H](Cc1c[nH]c2ccccc12)NC(=O)[C@H](Cc1c[nH]cn1)NC(=O)[C@@H]1CCC(=O)N1)C(=O)N[C@@H](CCCN=C(N)N)C(=O)N1CCC[C@H]1C(=O)N(C)CC(N)=O` [nafarelin 10SarNH2] had a pKi of 10.52.
As for `CC(C)C[C@H](NC(=O)[C@@H](Cc1ccc2ccccc2c1)NC(=O)[C@H](Cc1ccc(O)cc1)NC(=O)[C@H](CO)NC(=O)[C@H](Cc1cccc2ccccc12)NC(=O)[C@H](Cc1cnc[nH]1)NC(=O)[C@@H]1CCC(=O)N1)C(=O)N[C@@H](CCCN=C(N)N)C(=O)N1CCC[C@H]1C(=O)NCC(N)=O` [nafarelin 31Nal], the negative-log Ki (pKi) was 10.52.
`CC(C)C[C@H](NC(=O)[C@@H](Cc1ccc2ccccc2c1)NC(=O)[C@H](Cc1ccc(O)cc1)NC(=O)[C@H](CO)NC(=O)[C@H](Cc1c[nH]c2ccccc12)NC(=O)[C@H](Cc1c[nH]cn1)NC(=O)[C@@H]1CCC(=O)N1)C(=O)N[C@@H](CCCNC(=N)N)C(=O)N1CCC[C@H]1C(=O)NCC(N)=O` [nafarelin] showed a pKi of 11.00.

The term pKi denotes the Ki on a negative log10 scale, so that one unit is a factor of ten.
